Laboratory results as given in patent US20070078096A1, “Buffered drug formulations for transdermal electrotransport delivery” (priority 1997, published 2007).
Converted amounts (≈) assume the structure as drawn. Like-named read-outs stand apart in the source and are kept apart here. Residues, ends and D or L forms follow the SMILES beside them.

Key:
[1] = Solubility of dipeptides at their pI; format: physicochemical
Source text: (§1) Table 1 lists conductivities and solubilities of selected dipeptides useful in the present invention, at their pI.

[2] = pH stability of formulations with TMAB or SMS during electrotransport (Example 4); format: in vivo, hairless guinea pigs; conditions: for pH control with TMAB or SMS: all experimental conditions tested (Table 7)
Source text: The effect of the zwitterionic buffer Gly-His and His-Glu on pH stability of formulations containing small molecular weight drug-like compounds during electrotransport to hairless guinea pigs was studied. Trimethylammonium bromide (TMAB) was used as the cationic model drug and sodium methanesulfate (SMS) was used as the model anionic drug.
The electrodes were connected to a DC power source which supplied a constant level of electric current of 0.100 mA/cm^2. The anodic electrode assembly comprised a skin-contacting gel containing the aqueous solution of His-Glu 66 mM or Gly-His 45 mM and TMAB at 50 mM and 3% HEC. This formulation was separated from the silver anode by a Sybron ion exchange membrane. A gel containing 0.15 M sodium chloride (which acted as a chloride source) was placed between the silver anode and the ion exchange membrane. The cathodic electrode assembly comprised a skin-contacting gel containing the aqueous solution of His-Glu 66 mM or Gly-His 45 mM and SMS 50 mM and 3% HEC. The cathodic gel reservoir was separated from the silver chloride cathode by a Nafion ion exchange membrane. A gel containing 0.1 5M sodium chloride was placed between the cathode and the ion exchange membrane. The ionic strength of the skin-contacting gels was 60 mM.
(§2) Experiments were performed in vivo in hairless guinea pigs. Two animals were used for each condition studied. The electrotransport systems were applied to and removed from the backs of the animals. The two reservoirs were generally spaced about 5 cm apart. The application site was wiped with 70% isopropyl alcohol wipes prior to system application. Donor reservoir gel pH was measured prior to application and after removal of the systems using a HORIBA compact pH meter (Cardy).

[3] = In vivo iontophoresis, pH control of anodic and cathodic buffer gels (Example 2); set-up: species or system hairless guinea pigs; Ionic strength (approx.): unit not given here; conditions: for Anodic pH after 5 h electrotransport / Cathodic pH after 5 h electrotransport: 0.1 mA/cm^2; for pH control of electrotransport formulations: electrotransport experiments in animals; for pH control of electrotransport formulations / pH control of anodic and cathodic electrotransport formulations: at their pI; for pH control of electrotransport formulations / pH control of an anodic electrotransport formulation: for several hours; for pH control of a cathodic electrotransport formulation: for at least 5 hours; for pH control of a cathodic electrotransport formulation / pH control of an anodic electrotransport formulation: dipeptides at their pI; for pH control of anodic and cathodic electrotransport formulations: for up to 24 hours
Procedure: In vivo iontophoresis experiments were performed using custom built electrotransport systems. […] This formulation was separated from the anode electrode by a Sybron ion exchange membrane. […] The cathode-compartment comprised a skin-contacting gel containing the aqueous solution of the buffering agent at the indicated concentration and 3% HEC. This formulation was separated from the cathode electrode by a Nafion ion exchange membrane. […] The electrodes were connected to a DC power source which supplied a constant level of electric current of 0.1 mA/cm^2. Experiments were performed in vivo in hairless guinea pigs. Three animals were used for each condition studied. The electrotransport systems were applied to and removed from the flank of the animals. The two reservoirs were generally spaced about 5 cm apart. The application site was wiped with water prior to system application. pH of the gels was measured prior to application and after removal of the systems using a HORIBA compact pH […]).

[4] = Conductivity of dipeptides at their pI; format: physicochemical
Source text: as §1

[5] = Donor reservoir gel pH during electrotransport of DECAD (Example 3); format: in vivo, hairless guinea pigs
Procedure: The effect of the zwitterionic buffer Gly-His at pH 7.5 (pI) on the transdermal delivery of a synthetic radiolabeled decapeptide (DECAD) in the hairless guinea pig was evaluated. […] At pH 7.5 the net charge of DECAD is about +1.6.
The electrodes were connected to a DC power source which supplied a constant level of electric current of 0.100 mA/cm2. The anodic reservoir comprised a skin-contacting gel containing the aqueous solution of the buffering agent and DECAD at the indicated concentrations and 3% hydroxyethyl cellulose (HEC) as well as 10% cholestyramine, a high molecular weight resin in chloride salt form which contributes chloride ions into the donor solution without introducing mobile cations which compete with the DECAD for delivery into the animal. The chloride ions from the cholestyramine resin are provided to react with any silver ions which are generated by electrochemical oxidation of the silver foil anode, thereby removing silver cations (ie, as potentially competing with the DECAD cations) from the donor solution. The cathodic reservoir contained a 0.15 M aqueous solution of sodium chloride in an HEC gel.
as §2, with “Three” for “Two”, “flank” for “backs”, “water” for “70% isopropyl alcohol wipes”, “application. […]” for “application.”

[6] = pKa, pI and charge distribution of buffers; conditions: for % salt: fraction of dipeptide carrying a net charge in aqueous solution at pH equal to pI
Source text: At the pI, three species coexist.
In an electric field these negative species move in the opposite direction of their positive associated counterions.
Choice of the dipeptide buffer will be on a case-by-case basis depending on the drug compound and the desired level of pH control and conductivity of the formulation.

[7] = Gly-His 10 mM, DECAD 5 mM, wearing time 5 h
[8] = Gly-His 30 mM, DECAD 5 mM, wearing time 5 h
[9] = Gly-His 100 mM, DECAD 0.5 mM, wearing time 5 h
[10] = Gly-His 100 mM, DECAD 5 mM, wearing time 5 h
[11] = Gly-His 100 mM, DECAD 5 mM, wearing time 24 h
[12] = Gly-His 250 mM, DECAD 5 mM, wearing time 5 h

NCC(=O)N[C@@H](Cc1cnc[nH]1)C(=O)O [Gly-His] (H-Gly-His-OH)
Solubility [1]: 1000 mM (≈ 212 mg/mL)
Final pH ([2]; Anode, drug TMAB 50 mM): 6.9
Initial pH ([2]; Anode, drug TMAB 50 mM): 7.4
Final pH ([2]; Cathode, drug SMS 50 mM): 7.9
Initial pH ([2]; Cathode, drug SMS 50 mM): 7.5
pH control with TMAB or SMS [2]: good pH control
pH after 24 h electrotransport ([3]; Anode): 7.2
pH after 24 h electrotransport ([3]; Cathode, listed as Gly-His 100 mM): 7.3
pH after 24 h electrotransport ([3]; Cathode, listed as Gly-His 250 mM): 7.0
Ionic strength (approx.) ([3]; Table 3, anodic buffer gel, listed as Gly-His 30 mM): ~0.007
Ionic strength (approx.) ([3]; Table 3, anodic buffer gel, listed as Gly-His 100 mM): ~0.02
Ionic strength (approx.) ([3]; Table 3, anodic buffer gel, listed as Gly-His 250 mM): ~0.06
Ionic strength (approx.) ([3]; Table 4, cathodic buffer gel, listed as Gly-His 100 mM): ~0.02
Ionic strength (approx.) ([3]; Table 4, cathodic buffer gel, listed as Gly-His 250 mM): ~0.06
Initial pH ([3]; Table 5, Anode, listed as Gly-His 100 mM): 7.3
Initial pH ([3]; Table 5, Anode, listed as Gly-His 250 mM): 7.2
Initial pH ([3]; Table 5, Cathode, listed as Gly-His 100 mM): 7.6
Initial pH ([3]; Table 5, Cathode, listed as Gly-His 250 mM): 6.9
Anodic pH after 5 h electrotransport ([3]; anodic gel, listed as Gly-His 30 mM): 7.0
Anodic pH after 5 h electrotransport ([3]; anodic gel, listed as Gly-His 100 mM): 7.3
Anodic pH after 5 h electrotransport ([3]; anodic gel, listed as Gly-His 250 mM): 7.3
Initial pH ([3]; anodic gel, prior to application, listed as Gly-His 30 mM): 7.1
Initial pH ([3]; anodic gel, prior to application, listed as Gly-His 100 mM): 7.4
Initial pH ([3]; anodic gel, prior to application, listed as Gly-His 250 mM): 7.4
Cathodic pH after 5 h electrotransport ([3]; cathodic gel, listed as Gly-His 100 mM): 7.3
Cathodic pH after 5 h electrotransport ([3]; cathodic gel, listed as Gly-His 250 mM): 7.4
Initial pH ([3]; cathodic gel, prior to application, listed as Gly-His 100 mM): 7.6
Initial pH ([3]; cathodic gel, prior to application, listed as Gly-His 250 mM): 7.5
pH control of electrotransport formulations [3]: capable of assuring pH control
pH control of a cathodic electrotransport formulation [3]: capable of assuring pH control
pH control of an anodic electrotransport formulation [3]: capable of assuring pH control
pH control of anodic and cathodic electrotransport formulations [3]: capable of assuring pH control
Conductivity at 10^−2 Molar [4]: 52 μS/cm
Final pH [5, 7]: 7.0
Initial pH [5, 7]: 6.9
Final pH [5, 8]: 7.0
Initial pH [5, 8]: 7.1
Final pH [5, 9]: 7.2
Initial pH [5, 9]: 7.3
Final pH [5, 10]: 7.3
Initial pH [5, 10]: 7.4
Final pH [5, 11]: 7.3
Initial pH [5, 11]: 7.4
Final pH [5, 12]: 7.3
Initial pH [5, 12]: 7.4
pH control with DECAD ([5]; all experimental conditions tested (Table 6)): capable of assuring pH control
pI [6]: 7.55
pka A [6]: 2.42
pI ([6]; Table 1): 7.55
pI ([6]; Table 2): 7.55
species presenting a net charge (salt form) at the pI ([6]; at pI): 30%
neutral species at the pI ([6]; at pI, net charge of zero): 70%
% salt [6]: 22%
net charge at pH 7.5 ([6]; pH 7.5): essentially zero

N[C@@H](Cc1cnc[nH]1)C(=O)N[C@@H](CCC(=O)O)C(=O)O [His-Glu] (H-His-Glu-OH)
Solubility [1]: 400 mM (≈ 114 mg/mL)
Final pH ([2]; Anode, drug TMAB 50 mM): 5.3
Initial pH ([2]; Anode, drug TMAB 50 mM): 5.1
Final pH ([2]; Cathode, drug SMS 50 mM): 6.0
Initial pH ([2]; Cathode, drug SMS 50 mM): 5.2
pH control with TMAB or SMS [2]: good pH control
pH after 24 h electrotransport ([3]; Anode, listed as His-Glu 100 mM): 5.5
pH after 24 h electrotransport ([3]; Anode, listed as His-Glu 250 mM): 5.4
pH after 24 h electrotransport ([3]; Cathode, listed as His-Glu 100 mM): 5.4
pH after 24 h electrotransport ([3]; Cathode, listed as His-Glu 250 mM): 5.2
Ionic strength (approx.) ([3]; Table 3, anodic buffer gel, listed as His-Glu 100 mM): ~0.015
Ionic strength (approx.) ([3]; Table 3, anodic buffer gel, listed as His-Glu 250 mM): ~0.037
Ionic strength (approx.) ([3]; Table 4, cathodic buffer gel, listed as His-Glu 100 mM): ~0.015
Ionic strength (approx.) ([3]; Table 4, cathodic buffer gel, listed as His-Glu 250 mM): ~0.037
Initial pH ([3]; Table 5, Anode, listed as His-Glu 100 mM): 5.1
Initial pH ([3]; Table 5, Anode, listed as His-Glu 250 mM): 5.2
Initial pH ([3]; Table 5, Cathode): 5.3
Anodic pH after 5 h electrotransport ([3]; anodic gel): 5.2
Initial pH ([3]; anodic gel, prior to application, listed as His-Glu 100 mM): 5.1
Initial pH ([3]; anodic gel, prior to application, listed as His-Glu 250 mM): 5.2
Cathodic pH after 5 h electrotransport ([3]; cathodic gel): 5.0
Initial pH ([3]; cathodic gel, prior to application): 5.3
pH control of electrotransport formulations [3]: capable of assuring pH control
pH control of a cathodic electrotransport formulation [3]: capable of assuring pH control
pH control of an anodic electrotransport formulation [3]: capable of assuring pH control
pH control of anodic and cathodic electrotransport formulations [3]: capable of assuring pH control
Conductivity at 10^−2 Molar [4]: 40 μS/cm
pI [6]: 5.2
pI ([6]; Table 1): 5.20
pI ([6]; Table 2): 5.20
species presenting a net charge (salt form) at the pI ([6]; at pI): about 15%
% salt [6]: 15%
